# Source: patent US12502380B2, “MrgprX2 antagonists for the treatment of inflammatory disorders” (Dermira, Inc., priority 2019, dated 2025)
# Biological target: T1, Human MrgprX2 (Homo sapiens, UniProt Q96LB1)
# T1 construct: expressed in transfected cells
# T1 sequence (Q96LB1 1-330): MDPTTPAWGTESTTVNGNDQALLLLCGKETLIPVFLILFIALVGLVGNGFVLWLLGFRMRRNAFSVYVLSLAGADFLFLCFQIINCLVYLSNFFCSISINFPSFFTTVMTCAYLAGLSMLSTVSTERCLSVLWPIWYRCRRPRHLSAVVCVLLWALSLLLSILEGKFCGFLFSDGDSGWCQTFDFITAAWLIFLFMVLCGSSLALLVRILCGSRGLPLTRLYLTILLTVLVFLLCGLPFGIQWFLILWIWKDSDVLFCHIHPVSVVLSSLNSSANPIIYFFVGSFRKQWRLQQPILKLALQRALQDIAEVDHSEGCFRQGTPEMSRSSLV
# Test: Human MrgprX2 antagonist FLIPR intracellular calcium mobilization assay
# Format: cell-based
# Conditions: antagonist activity, recombinant hMrgpMRGPRX2 expressing cells, read-out: Human MrgprX2 Antagonist pIC50 (converted)
# Source text: Potent and selective hMrgpMRGPRX2 compounds have been generated from compounds identified during a high throughput screening (HTS) campaign and followed up with cycles of structure activity based medicinal chemistry efforts. These compounds were characterized in recombinant hMrgpMRGPRX2 expressing cells for their antagonist activity and the potency was confirmed in the human mast cell line LAD-2, where the target is endogenously expressed. The assays used to determine potencies are functional read-out looking at intracellular calcium mobilization using the FLIPR™ technology. In these FLIPR assays, we test the identified compounds using recombinant cellular systems expressing mouse MrgprB2, mouse MrgprA1, gerbil MrgpMRGPRX2 orthologue, Chinese hamster MrgpMRGPRX2 orthologue and cynomolgus monkey MrgpMRGPRX2 orthologue, respectively for orthologue activity.
row,IC50,Structure (SMILES)
1,3160 nM,"CC(=O)N1CCC(C)(C(=O)Nc2ncc(Cc3ccccc3F)s2)CC1 [Compound E059, 1-acetyl-N-[5-[(2-fluorophenyl)methyl]thiazol-2-yl]-4-methyl-piperidine-4-carboxamide]"
2,2510 nM,"CC1(C(=O)Nc2ncc(Cc3ccccc3F)s2)CCN(S(C)(=O)=O)CC1 [Compound E060, N-[5-[(2-fluorophenyl)methyl]thiazol-2-yl]-4-methyl-1-methylsulfonyl-piperidine-4-carboxamide]"
3,2000 nM,"C[C@]1(C(=O)Nc2ncc(Cc3cccc(F)c3)s2)CCCN1 [Compound E061, (2R)—N-[5-[(3-fluorophenyl)methyl]thiazol-2-yl]-2-methyl-pyrrolidine-2-carboxamide]"
4,3980 nM,NS(=O)(=O)N1CCC[C@H]1C(=O)Nc1ncc(Cc2cccc(F)c2)s1 [Compound E062]
5,3.16 nM,C[C@]1(C(=O)Nc2ncc(Cc3cccc(F)c3)s2)CCCN1S(N)(=O)=O [Compound E063]
6,631 nM,CC1(C(=O)Nc2ncc(Cc3ccccc3F)s2)CCN(S(N)(=O)=O)C1 (stereo not drawn) [Compound E064]
7,79.4 nM,NS(=O)(=O)N1CC[C@@H]1C(=O)Nc1ncc(Cc2cccc(F)c2)s1 [Compound E065]
8,31.6 nM,NS(=O)(=O)N1CCCC[C@@H]1C(=O)Nc1ncc(Cc2cccc(F)c2)s1 [Compound E066]
9,10000 nM,CN(CC(=O)Nc1ncc(Cc2cccc(F)c2)s1)S(N)(=O)=O [Compound E067]
10,631 nM,C[C@H](C(=O)Nc1ncc(Cc2cccc(F)c2)s1)N(C)S(N)(=O)=O [Compound E068]
11,1580 nM,CC[C@H](C(=O)Nc1ncc(Cc2cccc(F)c2)s1)N(C)S(N)(=O)=O [Compound E069]
12,5.01 nM,"CC1(C(=O)Nc2ncc(Oc3cccc(F)c3)s2)CCOCC1 [Compound E070, N-[5-(3-fluorophenoxy)thiazol-2-yl]-4-methyl-tetrahydropyran-4-carboxamide]"
13,6310 nM,CC(C)C(=O)Nc1ncc(Oc2cccnc2)s1 [Compound E071]
14,1260 nM,CC(C)C(=O)Nc1ncc(Nc2ccccc2)s1 [Compound E072]
15,1580 nM,CC(C)C(=O)Nc1ncc(N(C)c2ccccc2)s1 [Compound E073]
16,10 nM,CC(C)C(=O)Nc1ncc(Oc2ccc(F)cc2)s1 [Compound E074]
17,31.6 nM,CC(C)C(=O)Nc1ncc(Oc2ccccc2F)s1 [Compound E075]
18,1.26 nM,CC(C)C(=O)Nc1ncc(Oc2cccc(F)c2)s1 [Compound E076]
19,39.8 nM,CC1(C(=O)Nc2ncc(Oc3ccc(F)cc3)s2)CCOCC1 [Compound E077]
20,2.51 nM,"CC1(C(=O)Nc2ncc(Oc3cccc(F)c3)s2)CCOC1 (stereo not drawn) [Compound E078, N-[5-(3-fluorophenoxy)thiazol-2-yl]-3-methyl-tetrahydrofuran-3-carboxamide]"
21,3.98 nM,CC1(C(=O)Nc2ncc(Oc3cccc(Cl)c3)s2)CCOCC1 [Compound E079]
22,501 nM,CC1(C(=O)Nc2ncc(Oc3cncc(F)c3)s2)CCOCC1 [Compound E080]
23,2510 nM,CC(C)C(=O)Nc1nc(C#N)c(Oc2ccc(F)cc2)s1 [Compound E081]
24,1260 nM,"CC(C)(C)OC(=O)N1CCC[C@@H]1C(=O)Nc1ncc(Oc2ccccc2)s1 [Compound E082, tert-butyl (2R)-2-[(5-phenoxythiazol-2-yl)carbamoyl]pyrrolidine-1-carboxylate]"
25,2510 nM,"O=C(Nc1ncc(Oc2ccccc2)s1)[C@H]1CCCN1 [Compound E085, (2R)—N-(5-phenoxythiazol-2-yl)pyrrolidine-2-carboxamide]"
26,15.8 nM,"NS(=O)(=O)N1CCC[C@@H]1C(=O)Nc1ncc(Oc2ccccc2)s1 [Compound E086, (2R)—N-(5-phenoxythiazol-2-yl)-1-sulfamoyl-pyrrolidine-2-carboxamide]"

row,IC50,Structure (SMILES)
1,2510 nM,"CN1CCC[C@@H]1C(=O)Nc1ncc(Oc2ccc(C#N)cc2)s1 [Compound E087, (2R)—N-[5-(4-cyanophenoxy)thiazol-2-yl]-1-methyl-pyrrolidine-2-carboxamide]"
2,3160 nM,"CCN1CCC[C@@H]1C(=O)Nc1ncc(Oc2ccc(C#N)cc2)s1 [Compound E088, (2R)—N-[5-(4-cyanophenoxy)thiazol-2-yl]-1-ethyl-pyrrolidine-2-carboxamide]"
3,25.1 nM,"NS(=O)(=O)N1CCC[C@@H]1C(=O)Nc1ncc(Oc2ccc(F)cc2)s1 [Compound E089, (2R)—N-[5-(4-fluorophenoxy)thiazol-2-yl]-1-sulfamoyl-pyrrolidine-2-carboxamide]"
4,31.6 nM,"N#Cc1cc(F)cc(Oc2cnc(NC(=O)[C@H]3CCCN3S(N)(=O)=O)s2)c1 [Compound E090, (2R)—N-[5-(3-cyano-5-fluoro-phenoxy)thiazol-2-yl]-1-sulfamoyl-pyrrolidine-2-carboxamide]"
5,1580 nM,"N#Cc1ccc(Oc2cnc(NC(=O)[C@H]3CCCN3S(N)(=O)=O)s2)cc1 [Compound E091, (2R)—N-[5-(4-cyanophenoxy)thiazol-2-yl]-1-sulfamoyl-pyrrolidine-2-carboxamide]"
6,100 nM,"CC1(C(=O)Nc2ncc(Cc3cc(F)ccc3F)s2)CCOCC1 [Compound E092, N-[5-[(2,5-difluorophenyl)methyl]thiazol-2-yl]-4-methyl-tetrahydropyran-4-carboxamide]"
7,6.31 nM,CC(C)C(=O)Nc1ncc(Cc2cc(F)ccc2F)s1 [Compound E093]
8,7.94 nM,CC(C)C(=O)Nc1ncc(Cc2cccc(F)c2F)s1 [Compound E094]
9,158 nM,CC1(C(=O)Nc2ncc(Cc3cccc(F)c3F)s2)CCOCC1 [Compound E095]
10,50.1 nM,CC1(C(=O)Nc2ncc(Cc3cc(F)ccc3F)s2)COC1 [Compound E096]
11,2000 nM,CC1(C(=O)Nc2ncc(CC3CCCC3)s2)CCOCC1 [Compound E097]
12,3.16 nM,"CCN(C[C@H](C)O)C(=O)Nc1ncc(Cc2cccc(Cl)c2)s1 [Compound E098, 3-[5-[(3-chlorophenyl)methyl]thiazol-2-yl]-1-ethyl-1-[(2S)-2-hydroxypropyl]urea]"
13,398 nM,CC(O)CN(C)C(=O)Nc1ncc(Cc2ccccc2F)s1 (stereo not drawn) [Compound E099]
14,251 nM,C[C@@H](O)CN(C)C(=O)Nc1ncc(Cc2cccc(F)c2)s1 [Compound E100]
15,39.8 nM,C[C@H](O)CN(C)C(=O)Nc1ncc(Cc2cccc(F)c2)s1 [Compound E101]
16,251 nM,C[C@H](O)CN(C)C(=O)Nc1ncc(Cc2ccccc2F)s1 [Compound E102]
17,1260 nM,C[C@@H](O)CN(C)C(=O)Nc1ncc(Cc2ccccc2F)s1 [Compound E103]
18,316 nM,O=C(Nc1ncc(Cc2cccc(F)c2)s1)N1CCCC1CO (stereo not drawn) [Compound E104]
19,15.8 nM,CN(CC(O)C(F)(F)F)C(=O)Nc1ncc(Cc2cccc(F)c2)s1 (stereo not drawn) [Compound E105]
20,3160 nM,CN(CC(O)CO)C(=O)Nc1ncc(Cc2cccc(F)c2)s1 (stereo not drawn) [Compound E106]
21,3980 nM,C[C@H]1CN(C(=O)Nc2ncc(Cc3cccc(F)c3)s2)CCO1 [Compound E107]
22,1.58 nM,CN(CC(C)(C)O)C(=O)Nc1ncc(Cc2cccc(F)c2)s1 [Compound E108]
23,25.1 nM,CN(C[C@H](O)C(F)(F)F)C(=O)Nc1ncc(Cc2cccc(F)c2)s1 [Compound E109]
24,0.501 nM,CCN(CC(C)O)C(=O)Nc1ncc(Cc2cccc(F)c2)s1 (stereo not drawn) [Compound E110]
25,3.16 nM,CN(C[C@@H](O)C(F)(F)F)C(=O)Nc1ncc(Cc2cccc(F)c2)s1 [Compound E111]
